Test results taken from patent EP4374708A1, “NUTRITIONAL SUPPLEMENT PREPARATION” (Avea Life AG, priority 2022, dated 2024).
In brackets after ≈: the same amount, converted by molar mass.

Experiment: physchem
Conditions: water

Question: For `O=C(O)[C@@H]1C[C@@H](O)CN1` [hydroxyproline], which solubility is on record?
Answer: 198 mM (≈ 26 mg/mL)
